{"source": "patent US20100266504A1", "about": "“CONDENSED PYRIDINE DERIVATIVE AND USE THEREOF” (priority 2007, published 2010)", "key": {"[1]": {"biological_target": "serotonin 5-HT2C receptor (isoform type VSV, stably expressing CHO cell) (Homo sapiens, UniProt P28335, I156V/I160V/N158S)", "sequence (P28335 33-458 I156V/N158S/I160V limits assumed)": "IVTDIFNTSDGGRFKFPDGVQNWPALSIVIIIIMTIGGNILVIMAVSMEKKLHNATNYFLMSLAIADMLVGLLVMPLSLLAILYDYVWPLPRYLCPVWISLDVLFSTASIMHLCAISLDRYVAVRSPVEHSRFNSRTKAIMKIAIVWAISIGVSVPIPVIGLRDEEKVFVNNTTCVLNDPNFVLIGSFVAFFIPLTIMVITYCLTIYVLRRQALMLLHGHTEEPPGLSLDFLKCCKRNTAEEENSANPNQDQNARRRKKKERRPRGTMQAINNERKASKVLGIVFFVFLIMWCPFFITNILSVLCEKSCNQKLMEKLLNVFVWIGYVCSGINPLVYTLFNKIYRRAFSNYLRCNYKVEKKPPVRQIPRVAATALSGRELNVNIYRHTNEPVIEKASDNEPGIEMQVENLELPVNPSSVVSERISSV", "experiment": "cell-based", "conditions": "for Emax: CHO, read-out: ratio relative to maximum response by 5-HT (1 μM); for ratio relative to maximum response by 5-HT (1 μM): hydrochloride"}, "[2]": {"test_system": "spinal cord transected female rats whose hypogastric nerve and pudendal nerves were bilaterally cut", "experiment": "urethral closure response induced by increased intravesical pressure (Experimental Example 5)", "conditions": "for urethral closure response (cmH2O) after drug administration: i.v., 10 min after administration; for urethral closure response (cmH2O) after drug administration / urethral closure response (cmH2O) before drug administration: mean ± SEM, n=5; for urethral closure response (cmH2O) before drug administration: i.v. group; for effect on urethral closure response induced by increased intravesical pressure (in words): intravenous administration", "method": "Female SD rats (body weight 200-310 g) were anesthetized with urethane (Wako Pure Chemical Industries, Ltd.), and the spinal cord was transected at T8-9 level to eliminate the micturition reflex. During the operation, halothane (Takeda Pharmaceutical Company Limited) anesthesia was added when necessary. After abdominal section, bladder neck was ligated with a suture thread, and then the hypogastric nerve and pudendal nerve were bilaterally transected. A catheter (PE-90, Clay Adams) was placed in the bladder, and the other end of the bladder catheter was connected to a pressure transducer and a water reservoir (60 ml syringe) of saline via a three-way cock. A microtip transducer catheter (SPR-524, Millar Instruments Inc.) was inserted toward the bladder from the urethral orifice, and adjusted using a scale on the catheter surface so that the transducer part is positioned in the urethra at 10.0-15.0 mm from the urethral orifice.\nThe changes in the topical pressure within the urinary tract (hereinafter conveniently indicated as urethral pressure) as measured by the microtip transducer was transmitted to a computer via an amplifier (blood pressure amplification unit AP-641G; NIHON KOHDEN) and a data analyzer (MP-100; biopack; sampled at 500 Hz), and recorded on a hard disc. […] The reaction of the urinary tract induced by an increased intravesical pressure was measured 3 times, and the average of the last 2 measures was taken as the value before drug administration. The evaluation item was reflex urethral closure response, and the recorded values were subjected to smoothing process at 500 points to calculate an average urethral pressure per 1 sec, after which the value immediately before increase in the intravesical pressure was subtracted from the maximum value on increase in the intravesical pressure and taken as the urethral closure response. […] The drugs were all dissolved in N,N-dimethylformamide/polyethylene glycol 400 (1:1) and administered intravenously at a volume of 0.5 ml/kg."}, "[3]": {"test_system": "spinal cord-transected female rats under urethane anesthesia", "experiment": "leak point pressure by high speed infusion method, serotonin 5-HT2C receptor agonists (Experimental Example 3)", "conditions": "for change of leak point pressure (cmH2O): i.v., mean ± SEM; for effect on leak point pressure (in words): intravenous administration", "method": "SD female rats (body weight 180-350 g) were anesthetized with urethane (Wako Pure Chemical Industries, Ltd.), and the spinal cord was cut at T8-9 level to eliminate the micturition reflex. During the operation, halothane (Takeda Pharmaceutical Company Limited) anesthesia was added as necessary. The rats were fixed at a dorsal position, and two catheters (PE-100; Clay Adams) were indwelled in the bladder. One of the catheters was filled with saline stained with Evans Blue dye (Merck), and connected to a 50 ml syringe (TERUMO CORPORATION) fixed on an infusion pump (KD Scientific) via a three-way cock. The other catheter was connected to a pressure transducer (DX-100; NIHON KOHDEN CORPORATION), and signals of the transducer were transmitted to computer via an amplifier (blood pressure amplification unit AP-641G; NIHON KOHDEN CORPORATION) and a data analyzer (BIOPAC; MP100), and recorded on a hard disk. The data was analyzed on the computer using a software (BIOPAC; AcqKnowledge). Saline was injected into the bladder using the infusion pump at a rate of 360 ml/hr, infusion was stopped on the moment fluid leakage from the urethral meatus was observed, and the solution in the bladder was discharged by opening the three-way cock. The maximum intravesical pressure during infusion was taken as a leak point pressure, which was measured repeatedly until the value was stabilized, and the average value of the last three measures was taken as the data. […] All the drugs were dissolved in DMA/PEG400 (1:1) and intravenously administered at 0.5 ml/kg."}, "[4]": {"test_system": "spinal cord-transected female rats under urethane anesthesia", "conditions": "before vs after administration", "method": "SD female rats (body weight 180-350 g) were anesthetized with urethane (Wako Pure Chemical Industries, Ltd.), and the spinal cord was cut at T8-9 level to eliminate the micturition reflex. During the operation, halothane (Takeda Pharmaceutical Company Limited) anesthesia was added as necessary. The rats were fixed at a dorsal position, and two catheters (PE-100; Clay Adams) were indwelled in the bladder. One of the catheters was filled with saline stained with Evans Blue dye (Merck), and connected to a 50 ml syringe (TERUMO CORPORATION) fixed on an infusion pump (KD Scientific) via a three-way cock. The other catheter was connected to a pressure transducer (DX-100; NIHON KOHDEN CORPORATION), and signals of the transducer were transmitted to computer via an amplifier (blood pressure amplification unit AP-641G; NIHON KOHDEN CORPORATION) and a data analyzer (BIOPAC; MP100), and recorded on a hard disk. The data was analyzed on the computer using a software (BIOPAC; AcqKnowledge). Saline was injected into the bladder using the infusion pump at a rate of 360 ml/hr, infusion was stopped on the moment fluid leakage from the urethral meatus was observed, and the solution in the bladder was discharged by opening the three-way cock. The maximum intravesical pressure during infusion was taken as a leak point pressure."}}, "note": "Structures can show the parent of a compound that is named as a salt. Where two headings read alike, the source gives them in different places."}
{"smiles": "CC1CNCc2ccc(N3CCOCC3)nc21", "note": "(single isomer, unassigned) [Example 73, (8R*)-8-Methyl-2-morpholin-4-yl-5,6,7,8-tetrahydro-1,6-naphthyridine hydrochloride]", "values": [{"measurement": "Emax", "setting": "[1]", "result": 101, "unit": "%"}]}
{"smiles": "CC1CNCc2ccc(N3CCOCC3)nc21", "note": "(single isomer, unassigned) [Example 74, (8S*)-8-Methyl-2-morpholin-4-yl-5,6,7,8-tetrahydro-1,6-naphthyridine hydrochloride]", "values": [{"measurement": "ratio relative to maximum response by 5-HT (1 μM)", "setting": "[1]", "result": 103}]}
{"smiles": "CC1CNCc2ccc(N(C)C(C)C)nc21", "note": "(single isomer, unassigned) [Example 79, (8R*)-N-Isopropyl-N,8-dimethyl-5,6,7,8-tetrahydro-1,6-naphthyridin-2-amine hydrochloride]", "values": [{"measurement": "Emax", "setting": "[1]", "result": 106, "unit": "%"}]}
{"smiles": "CC1CNCc2ccc(N(C)C(C)C)nc21", "note": "(single isomer, unassigned) [Example 80, (8S*)-N-Isopropyl-N,8-dimethyl-5,6,7,8-tetrahydro-1,6-naphthyridin-2-amine hydrochloride]", "values": [{"measurement": "ratio relative to maximum response by 5-HT (1 μM)", "setting": "[1]", "result": 102}]}
{"smiles": "CC1CNCc2ccc(N3CCOC[C@H]3C)nc21", "note": "(stereo in doubt) [Example 75, (8R*)-8-Methyl-2-[(3R)-3-methylmorpholin-4-yl]-5,6,7,8-tetrahydro-1,6-naphthyridine hydrochloride]", "values": [{"measurement": "Emax", "setting": "[1]", "result": 103, "unit": "%"}]}
{"smiles": "CC1CNCc2ccc(N3CCOC[C@H]3C)nc21", "note": "(stereo in doubt) [Example 76, (8S*)-8-Methyl-2-[(3R)-3-methylmorpholin-4-yl]-5,6,7,8-tetrahydro-1,6-naphthyridine hydrochloride]", "values": [{"measurement": "ratio relative to maximum response by 5-HT (1 μM)", "setting": "[1]", "result": 105}]}
{"smiles": "C[C@H]1CNCCc2ccc(Cl)cc21", "note": "[APD-356]", "values": [{"measurement": "urethral closure response (cmH2O) after drug administration", "setting": "[2]; 1 mg/kg", "result": "8.6 ± 2.7", "unit": "cmH2O"}, {"measurement": "urethral closure response (cmH2O) before drug administration", "setting": "[2]; baseline of the 1 mg/kg", "result": "5.3 ± 1.7", "unit": "cmH2O"}, {"measurement": "effect on urethral closure response induced by increased intravesical pressure (in words)", "setting": "[2]", "result": "enhanced the urethral closure response"}, {"measurement": "change of leak point pressure (cmH2O)", "setting": "[3]; 0.1 mg/kg", "result": "5.2 ± 2.6", "unit": "cmH2O"}, {"measurement": "change of leak point pressure (cmH2O)", "setting": "[3]; 1 mg/kg", "result": "19.2 ± 3.1", "unit": "cmH2O"}, {"measurement": "change of leak point pressure (cmH2O)", "setting": "[3]; 3 mg/kg", "result": "28.9 ± 3.3", "unit": "cmH2O"}, {"measurement": "effect on leak point pressure (in words)", "setting": "[3]", "result": "increased the leak point pressure in a dose-dependent manner"}]}
{"smiles": "CC1CCNCc2ccc(N3CCOCC3)nc21", "note": "(centres unmarked) [Example 2, 9-Methyl-2-morpholin-4-yl-6,7,8,9-tetrahydro-5H-pyrido[3,2-c]azepine hydrochloride]", "values": [{"measurement": "Emax", "setting": "[1]", "result": 92.8, "unit": "%"}]}
{"smiles": "CC1CNCc2ccc(-c3ccc(F)cc3)nc21", "note": "(centres unmarked) [Example 4, 2-(4-Fluorophenyl)-8-methyl-5,6,7,8-tetrahydro-1,6-naphthyridine hydrochloride]", "values": [{"measurement": "Emax", "setting": "[1]", "result": 101, "unit": "%"}]}
{"smiles": "CC1CNCc2ccc(N3CCOCC3)nc21", "note": "(centres unmarked) [Example 5, 8-Methyl-2-morpholin-4-yl-5,6,7,8-tetrahydro-1,6-naphthyridine dihydrochloride]", "values": [{"measurement": "Emax", "setting": "[1]", "result": 101, "unit": "%"}]}
{"smiles": "c1cc2c(nc1N1CCOCC1)CCNC2", "note": "[Example 6, 2-Morpholin-4-yl-5,6,7,8-tetrahydro-1,6-naphthyridine]", "values": [{"measurement": "Emax", "setting": "[1]", "result": 100, "unit": "%"}]}
{"smiles": "C[C@@H]1COCCN1c1ccc2c(n1)CCNC2", "note": "[Example 7, 2-[(3R)-3-Methylmorpholin-4-yl]-5,6,7,8-tetrahydro-1,6-naphthyridine hydrochloride]", "values": [{"measurement": "Emax", "setting": "[1]", "result": 95.6, "unit": "%"}]}
{"smiles": "C[C@H]1COCCN1c1ccc2c(n1)CCNC2", "note": "[Example 8, 2-[(3S)-3-Methylmorpholin-4-yl]-5,6,7,8-tetrahydro-1,6-naphthyridine hydrochloride]", "values": [{"measurement": "Emax", "setting": "[1]", "result": 90.8, "unit": "%"}]}
{"smiles": "CCN(C)c1ccc2c(n1)CCNC2", "note": "[Example 15, N-Ethyl-N-methyl-5,6,7,8-tetrahydro-1,6-naphthyridin-2-amine hydrochloride]", "values": [{"measurement": "Emax", "setting": "[1]", "result": 102, "unit": "%"}]}
{"smiles": "CC(C)N(C)c1ccc2c(n1)CCNC2", "note": "[Example 17, N-Isopropyl-N-methyl-5,6,7,8-tetrahydro-1,6-naphthyridin-2-amine hydrochloride]", "values": [{"measurement": "Emax", "setting": "[1]", "result": 100, "unit": "%"}]}
{"smiles": "CC(C)c1ccc2c(n1)CCNC2", "note": "[Example 24, 2-Isopropyl-5,6,7,8-tetrahydro-1,6-naphthyridine hydrochloride]", "values": [{"measurement": "Emax", "setting": "[1]", "result": 101, "unit": "%"}]}
{"smiles": "c1cc(-c2ccc3c(n2)CCNC3)co1", "note": "[Example 26, 2-(3-Furyl)-5,6,7,8-tetrahydro-1,6-naphthyridine dihydrochloride]", "values": [{"measurement": "Emax", "setting": "[1]", "result": 98.2, "unit": "%"}]}
{"smiles": "Fc1ccc(-c2ccc3c(n2)CCNC3)cc1", "note": "[Example 27, 2-(4-Fluorophenyl)-5,6,7,8-tetrahydro-1,6-naphthyridine dihydrochloride]", "values": [{"measurement": "Emax", "setting": "[1]", "result": 91.7, "unit": "%"}]}
{"smiles": "CSc1ccc(-c2ccc3c(n2)CCNC3)cc1", "note": "[Example 28, 2-[4-(Methylthio)phenyl]-5,6,7,8-tetrahydro-1,6-naphthyridine dihydrochloride]", "values": [{"measurement": "Emax", "setting": "[1]", "result": 102, "unit": "%"}]}
{"smiles": "FC(F)(F)c1ccc(-c2ccc3c(n2)CCNC3)cc1", "note": "[Example 29, 2-[4-(Trifluoromethyl)phenyl]-5,6,7,8-tetrahydro-1,6-naphthyridine dihydrochloride]", "values": [{"measurement": "Emax", "setting": "[1]", "result": 97, "unit": "%"}]}
{"smiles": "CC(C)Oc1ccc2c(n1)CCNC2", "note": "[Example 30, 2-Isopropoxy-5,6,7,8-tetrahydro-1,6-naphthyridine hydrochloride]", "values": [{"measurement": "Emax", "setting": "[1]", "result": 97.8, "unit": "%"}]}
{"smiles": "CC(Oc1ccc2c(n1)CCNC2)C1CC1", "note": "(centres unmarked) [Example 31, 2-(1-Cyclopropylethoxy)-5,6,7,8-tetrahydro-1,6-naphthyridine hydrochloride]", "values": [{"measurement": "Emax", "setting": "[1]", "result": 88.4, "unit": "%"}]}
{"smiles": "c1cc2c(nc1C1CC1)CCNC2", "note": "[Example 43, 2-Cyclopropyl-5,6,7,8-tetrahydro-1,6-naphthyridine hydrochloride]", "values": [{"measurement": "Emax", "setting": "[1]", "result": 97, "unit": "%"}]}
{"smiles": "CC1CNCc2ccc(N3CCOC[C@H]3C)nc21", "note": "(stereo partly drawn) [Example 48, 8-Methyl-2-[(3R)-3-methylmorpholin-4-yl]-5,6,7,8-tetrahydro-1,6-naphthyridine hydrochloride]", "values": [{"measurement": "Emax", "setting": "[1]", "result": 95.5, "unit": "%"}]}
{"smiles": "CC1CNCc2ccc(N(C)C(C)C)nc21", "note": "(centres unmarked) [Example 53, N-Isopropyl-N,8-dimethyl-5,6,7,8-tetrahydro-1,6-naphthyridin-2-amine hydrochloride]", "values": [{"measurement": "Emax", "setting": "[1]", "result": 91, "unit": "%"}]}
{"smiles": "O=C1Nc2cc(Cl)c(Cl)cc2N2CCNCC12", "note": "(centres unmarked) [WAY-161503]", "values": [{"measurement": "change of leak point pressure (cmH2O)", "setting": "[3]; 0.03 mg/kg", "result": "7.4 ± 3.8", "unit": "cmH2O"}, {"measurement": "change of leak point pressure (cmH2O)", "setting": "[3]; 0.3 mg/kg", "result": "12.8 ± 1.0", "unit": "cmH2O"}, {"measurement": "effect on leak point pressure (in words)", "setting": "[3]", "result": "increased the leak point pressure in a dose-dependent manner"}]}
{"smiles": "c1cc2c3c(c1)[C@H]1CCC[C@H]1N3CCNC2", "note": "[WAY-163909]", "values": [{"measurement": "urethral closure response (cmH2O) after drug administration", "setting": "[2]; 3 mg/kg", "result": "10.2 ± 1.6", "unit": "cmH2O"}, {"measurement": "urethral closure response (cmH2O) before drug administration", "setting": "[2]; baseline of the 3 mg/kg", "result": "4.4 ± 0.8", "unit": "cmH2O"}, {"measurement": "effect on urethral closure response induced by increased intravesical pressure (in words)", "setting": "[2]", "result": "enhanced the urethral closure response"}, {"measurement": "change of leak point pressure (cmH2O)", "setting": "[3]; 0.1 mg/kg", "result": "4.4 ± 1.6", "unit": "cmH2O"}, {"measurement": "change of leak point pressure (cmH2O)", "setting": "[3]; 1 mg/kg", "result": "12.9 ± 4.2", "unit": "cmH2O"}, {"measurement": "change of leak point pressure (cmH2O)", "setting": "[3]; 3 mg/kg", "result": "30.1 ± 2.6", "unit": "cmH2O"}, {"measurement": "effect on leak point pressure (in words)", "setting": "[3]", "result": "increased the leak point pressure in a dose-dependent manner"}]}
{"smiles": "c1cc2c(nc1N1CCOCC1)OCCNC2", "note": "[compound A, 8-morpholin-4-yl-2,3,4,5-tetrahydropyrido[3,2-f][1,4]oxazepine]", "values": [{"measurement": "urethral closure response (cmH2O) after drug administration", "setting": "[2]; 1 mg/kg", "result": "7.5 ± 1.6", "unit": "cmH2O"}, {"measurement": "urethral closure response (cmH2O) before drug administration", "setting": "[2]; baseline of the 1 mg/kg", "result": "4.6 ± 0.8", "unit": "cmH2O"}, {"measurement": "effect on urethral closure response induced by increased intravesical pressure (in words)", "setting": "[2]", "result": "enhanced the urethral closure response"}, {"measurement": "change of leak point pressure (cmH2O)", "setting": "[3]; 0.1 mg/kg", "result": "8.4 ± 5.0", "unit": "cmH2O"}, {"measurement": "change of leak point pressure (cmH2O)", "setting": "[3]; 1 mg/kg", "result": "10.3 ± 2.4", "unit": "cmH2O"}, {"measurement": "change of leak point pressure (cmH2O)", "setting": "[3]; 3 mg/kg", "result": "25.7 ± 8.7", "unit": "cmH2O"}, {"measurement": "effect on leak point pressure (in words)", "setting": "[3]", "result": "increased the leak point pressure in a dose-dependent manner"}]}
{"smiles": "CNCC[C@H](Oc1cccc2ccccc12)c1cccs1", "note": "[duloxetine]", "values": [{"measurement": "change of leak point pressure (cmH2O)", "setting": "[4]; 1 mg/kg, i.v., mean ± SEM, n=5", "result": "11.4 ± 2.4", "unit": "cmH2O"}, {"measurement": "effect on leak point pressure (in words)", "setting": "[4]; intravenous administration", "result": "significantly increased the leak point pressure"}]}
